Legend:
[1] = tested on: Caco-2 cell monolayers; assay: Caco-2 cell monolayer permeability assay; format: in vitro ADME, Human; details: apical to basolateral, 37°C, pH 6.0
Procedure: The Caco-2 cell monolayer permeability assay was performed as reported previously. In brief, Caco-2 cells were seeded onto polycarbonate 6-well Transwell® inserts (mean pore size 3.0 μm, Corning Costar Inc., NY, USA) at a density of 4 × 10^5 cells/well, then the confluent monolayers (10–12 days) were used for permeability studies. The transepithelial electrical resistance (TEER) of the monolayer was measured using an epithelial voltohmmeter (EVOM, WPI Inc., USA) to determine the formation of the monolayer and its integrity during the experiment. The studies were carried out in HBSS containing 30 mM HEPES at pH 6.0. Monolayers were washed with HBSS prior to the experiment, after which 0.5 and 1.2 mL of HBSS was placed into the upper and lower compartments, respectively. A total volume of 100 μL of solution (1 or 5 μg/mL) was taken from the lower compartment at regular intervals over 120 min and replaced with the same volume of fresh buffer, followed by a LC-MS/MS analysis. Apparent permeability coefficients (Papp) were calculated using the equation: (∂Q/∂t)/(A*C0), where “∂Q/∂t” is the permeability rate of the drug across the cells, “A” is the diffusion area of the monolayer and “C0” is the initial concentration of GS25 in the upper compartment.

[2] = tested on: LNCaP (p53 wild-type) cells; assay: Cell viability, MTT assay, LNCaP; format: cell-based, Human; details: GS25 equivalent
Procedure: (§1) Assays for cell viability and apoptosis were performed as described previously. In brief, 3–4 × 10^4 cells were seeded in a 96-well plate and treated with various concentrations of GS25 or GS25NP for 24, 48, or 72 h for the MTT assay. To detect apoptosis, 2–3 × 10^5 cells were seeded in 6-well plates and were treated with GS25 or GS25NP for 48 h. Cells positive for Annexin V-FITC and PI were counted on a BD FACSVerse instrument (BD Biosciences, CA, USA).

[3] = tested on: DU145 (p53 mutant) cells; assay: Cell viability, MTT assay, DU145; format: cell-based, Human; details: GS25 equivalent
Procedure: as §1

[4] = tested on: PC3 (p53 null) cells; assay: Cell viability, MTT assay, PC3; format: cell-based, Human; details: GS25 equivalent
Procedure: as §1

[5] = tested on: LNCaP cells; assay: Apoptosis, Annexin V-FITC, LNCaP; format: cell-based, Human; details: 12.3 μg/mL, 48 h
Procedure: as §1

[6] = tested on: DU145 cells; assay: Apoptosis, Annexin V-FITC, DU145; format: cell-based, Human; details: DU145, 12.3 μg/mL, 48 h
Procedure: as §1

[7] = tested on: PC3 cells; assay: Apoptosis, Annexin V-FITC, PC3; format: cell-based, Human; details: PC3, 12.3 μg/mL, 48 h
Procedure: as §1

[8] = tested on: MDM2; assay: Western blotting of MDM2 and apoptosis-related proteins in prostate cancer cells; format: cell-based, Human; details: 2.5 μg/mL, 24 h, LNCaP, DU145, PC3 cells
Procedure: In the in vitro studies, prostate cancer cells with or without GS25 or GS25NP treatment were lysed in NP40 lysis buffer containing a protease inhibitor mixture (Sigma, St. Louis, MO, USA). In the in vivo studies, tumor tissues were removed and homogenized in NP40 lysis buffer (100 mg tumor tissue/1 mL NP40 buffer), and the supernatants of the homogenates was collected. Then, the cell lysates and tumor homogenates were subjected to Western blotting analyses for the expression levels of MDM2 and other related proteins using the methods described in our previous studies.

[9] = Pharmacokinetics and biodistribution in CD-1 mice; format: in vivo
Procedure: Pharmacokinetic studies were carried out in normal CD-1 mice and nude mice bearing PC3 xenograft tumors as described previously. Briefly, male CD-1 mice were divided randomly into four groups with three mice per time point. One group received 20 mg/kg of GS25 in PEG400:EtOH:saline by intravenous injection into the tail vein. One group of mice received GS25 in PEG400:EtOH:saline (57.1:14.3:28.6, v/v/v) at a dose of 100 mg/kg by oral administration. Two groups received GS25NP at a dose of 20 mg/kg and 100 mg/kg by oral administration. Nude mice bearing PC3 xenografts were divided into two groups and given GS25 and GS25NP at a dose of 100 mg/kg by oral administration. For orally-dosed mice, the plasma and various tissues (tumor, liver, lungs, kidneys, spleen, heart, brain, pancreas, fat, stomach, stomach contents, small intestine, small intestine contents, large intestine, and large intestine contents) were collected at 0, 15, 30, and 60 min, and 2, 4, 8, 24, 48, and 72 h after treatment. For mice that received an i.v. injection, various tissues were collected at 0, 5, 10, 30, and 60 min, and 2, 4, 8, 24, 48, and 72 h after treament. The plasma and tissue samples were stored at −80°C until they were analyzed by LC-MS/MS.

[10] = Maximum tolerated dose (MTD) study; format: in vivo; details: CD-1 mice, oral
Procedure: To assess the possible host toxicity of GS25 and GS25NP and establish initial doses for in vivo treatment, a multi-dose MTD study was initially performed for both GS25 and GS25NP at a dose of 200 mg/kg for 7 days. […] The toxicity studies were continued with dose of 400 mg/kg/d for 7 days using a similar protocol. At the end of the study, all mice were euthanized, and various tissues (liver, lungs, kidneys, spleen, heart, and brain) were collected for a pathological analysis.

[11] = tested on: PC3 xenograft tumors; assay: In vivo efficacy and host toxicity in PC3 prostate cancer xenograft model; design: species or system nude mice
Procedure: The animal study protocol was approved by the Institutional Animal Use and Care Committee of the Texas Tech University Health Sciences Center. Male athymic pathogen-free nude mice (nu/nu, 4–6 weeks) were purchased from Charles River Laboratories (Wilmington, MA). The PC3 human prostate cancer xenografts were established as reported previously. Briefly, a total of 5 × 10^6 PC3 cells (in 0.1 mL) were subcutaneously injected into the left inguinal area of the mice. All animals were monitored for activity, physical condition, body weight, and tumor growth. When the tumor volume reached ~ 100 mm^3, the mice bearing PC3 xenografts were randomly divided into treatment and control groups (10 mice/each group). GS25NP was dissolved in water and administered by oral gavage at a dose of 20 mg/kg/d or 100 mg/kg/d, 5 day/week for 4 weeks, while GS25 in PEG400:EtOH:saline (57.1:14.3:28.6, v/v/v) was administered at a dose of 100 mg/kg/d for 4 weeks. The control groups received vehicle only or void NPs. At the end of the experiment, xenograft tumors and various organs (liver, lungs, kidneys, spleen, heart, and brain) were excised and snap frozen for Western blotting, immunohistochemical studies, TUNEL assays, and hematoxylin and eosin staining.
All of the staining assays were performed as described previously. Briefly, tissues were fixed and embedded in paraffin, cut into 5 μm sections, and then affixed onto glass slides. For the immunohistochemical studies, the tumor sections were blocked and incubated with a biotinylated anti-human MDM2 antibody (diluted 1:50 in 5% BSA in PBS) for 1–2 h at room temperature. Sections were then incubated with pre-diluted streptavidin-peroxidase HRP conjugates and stained with DAB chromogen according to the manufacturer's instructions. Finally, sections were lightly counterstained with hematoxylin. […] Tissue sections were analyzed under a phase-contrast Olympus microscope (Olympus America Inc).

[12] = nude mice bearing PC3 xenografts, 4-week oral treatment (GS25 100 mg/kg; GS25NP 20 and 100 mg/kg)

For `COC(C)(C)CCC[C@](C)(O)[C@H]1CC[C@]2(C)[C@@H]1[C@H](O)C[C@@H]1[C@@]3(C)CC[C@H](O)C(C)(C)[C@@H]3CC[C@]12C` [GS25, 20(s)-25-methoxyl-dammarane-3beta, 12beta, 20-triol], the “Apparent permeability coefficient (Papp)” value [1] was 38 ×10⁻⁶ cm/s, the “IC50 LNCaP” value ([2]; treatment time 24 h) was 18.3 µg/mL and the “IC50 LNCaP” value ([2]; treatment time 48 h) was 11.6 µg/mL. The “IC50 LNCaP” value ([2]; treatment time 72 h) was 8.0 µg/mL, the “IC50 DU145” value ([3]; treatment time 24 h) was 13.1 µg/mL and the “IC50 DU145” value ([3]; treatment time 48 h) was 8.0 µg/mL. The “IC50 DU145” value ([3]; treatment time 72 h) was 5.4 µg/mL, the “IC50 PC-3” value ([4]; treatment time 24 h) was 10.9 µg/mL and the “IC50 PC-3” value ([4]; treatment time 48 h) was 6.7 µg/mL. For the same molecule, the “IC50 PC-3” value ([4]; treatment time 72 h) was 3.8 µg/mL, the Apoptotic cells [5] was 28.5% and the Apoptotic cells [6] was 18.2%. The Apoptotic cells [7] was 22.9%, the “Effect on MDM2 and apoptosis-associated protein levels (p53, Bax, cleaved-PARP)” value [8] was “did not produce significant effects” and the Oral bioavailability ([9]; 100 mg/kg oral vs 20 mg/kg i.v.) was ~ 14.9%. The AUC0-t ([9]; plasma, 100 mg/kg, p.o.) was 3500 ng·h/mL, the Cmax ([9]; plasma, 100 mg/kg, p.o.) was 900 ng/mL and the T1/2 ([9]; plasma, 100 mg/kg, p.o.) was 2.1 h. The “Body weight change in MTD study” value ([10]; 200 or 400 mg/kg/d for 7 days) was “No significant decrease in mouse body weight”, the “Histological examination of liver, lungs, kidneys, spleen, heart, brain vs vehicle” value ([10]; 200 or 400 mg/kg/d for 7 days) was “no significant differences among the groups” and the “Toxicity in MTD study” value ([10]; up to 400 mg/kg/d for 7 days) was “no toxicity”. The “Inhibition of PC3 xenograft tumor growth” value ([11]; 100 mg/kg oral, 5 days/week for 4 weeks) was “approximately 41%”, the “Change in average body weight” value [11, 12] was “no significant changes in the average body weights” and the “Histological findings in liver, lungs, kidneys, spleen, heart, brain vs control” value [11, 12] was “no significant differences in the histological findings”.
